What was measured:
[1] = biological target: CRBN-DDB1 protein complex (Homo sapiens, UniProt Q96SW2); assay: Fluorescence polarization (FP) assay, displacement of Cy5-labelled thalidomide; conditions: read-out: CRBN binding Ki; further: 25 nM CRBN-DDB1
Experimental: The test solution was added to a 384-well assay plate.
The plate was spun-down (1 min, 1000 rpm, 22° C.) and then shaken using a VibroTurbulator for 10 min at room temperature (20-25° C.), with the frequency set to level 3. The assay plate with protein and the tracer was incubated for 60 min at room temperature (20-25° C.) prior to read-out with a plate reader.
The FP experiment was carried out with various concentrations of the test compounds in order to measure Ki values.

IKZF3 = IKZF3 degradation assay, H929 cell line (western blot densitometry); assay type: cell-based; conditions: H929 cells, after 24 h
Experimental: (§1) H929 cells were maintained in RPMI-1640 medium, supplemented with penicillin/streptomycin and 10% Fetal Bovine Serum (FBS) and 0.05 mM 2-Mercaptoethanol. Cells were seeded on 6- or 12-well plates, and the compounds to be tested were added at the desired concentration range. Final DMSO concentration was 0.25%. After 24 h incubation (37° C., 5% CO2), cells were harvested, washed and cell lysates were prepared using RIPA lysis buffer. The amount of protein was determined via BCA assay, and the appropriate quantity was then loaded on the precast gel for the protein separation. After primary and secondary Ab staining, the membranes were washed and signals developed. The densitometry analysis was implemented to obtain the numeric values used later in the protein level evaluation process.
Densitometry values are normalized to the loading control (β-ACTIN) and presented as % of DMSO control in Tables 4A and 4B, below, using the following labels: • ≤25% for 0-25% of IKZF3 protein reduction, • >25% for 26-74% of IKZF3 protein reduction, • ≥75% for 75-100% of IKZF3 protein reduction.

IKZF1 = IKZF1 degradation assay, H929 cell line (western blot densitometry); assay type: cell-based; conditions: H929 cells, after 24 h
Experimental: as §1, with “penicillin/streptomycin,” for “penicillin/streptomycin and”
Densitometry values are normalized to the loading control (β-ACTIN) and presented as % of DMSO control in Table 3, below, using the following labels: • ≤25% for 0-25% of IKZF1 protein reduction, • >25% for 26-74% of IKZF1 protein reduction, • ≥75% for 75-100% of IKZF1 protein reduction.

SALL4 = SALL4 degradation assay, Kelly cell line (western blot densitometry); assay type: cell-based; conditions: Kelly cells, after 24 h
Experimental: as §1, with “Kelly” for “H929”, “(FBS).” for “(FBS) and 0.05 mM 2-Mercaptoethanol.”, “6-well” for “6- or 12-well”, “were” for “were harvested,”, “antibody” for “Ab”
Densitometry values are normalized to the loading control (β-ACTIN) and presented as % of DMSO control in Table 2, below, using the following labels: • ≤25% for 0-25% of SALL4 protein reduction, • >25% for 26-74% of SALL4 protein reduction, • ≥75% for 75-100% of SALL4 protein reduction.

H929 (myeloma) = assay: Viability, CTG (CellTiter-Glo) assay; assay type: cell-based; conditions: Homo sapiens, NCI-H929, H929, 72 hours, 100% = DMSO, read-out: Average of % viability of quadruplicate
Experimental: Three thousand cells in 50 μL of culture medium were plated in 384-well plate, and incubated with 50, 13, and 2 μM of each compound for 72 hours. ATP content in the remaining cells after the treatment was quantitated with the CellTiter-Glo Luminescent Viability Assay Kit (Promega). The activity of the compound at each concentration was shown as percentage viability; 100% viability was the ATP content in the cells incubated with DMSO, the carrier of the compounds.

CRBN-DDB1 protein complex, sequence (Q96SW2 whole entry): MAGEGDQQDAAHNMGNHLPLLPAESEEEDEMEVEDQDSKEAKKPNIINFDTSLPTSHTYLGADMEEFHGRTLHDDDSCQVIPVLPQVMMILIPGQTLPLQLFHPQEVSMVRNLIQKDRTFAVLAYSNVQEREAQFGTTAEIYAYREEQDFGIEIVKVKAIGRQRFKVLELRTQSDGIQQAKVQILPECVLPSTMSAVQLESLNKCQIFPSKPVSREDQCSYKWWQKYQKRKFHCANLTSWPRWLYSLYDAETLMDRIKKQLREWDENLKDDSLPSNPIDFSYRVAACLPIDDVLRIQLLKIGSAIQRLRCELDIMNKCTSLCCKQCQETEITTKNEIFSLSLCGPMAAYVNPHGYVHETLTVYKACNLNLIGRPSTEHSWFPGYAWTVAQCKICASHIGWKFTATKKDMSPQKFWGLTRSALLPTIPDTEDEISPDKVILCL
CRBN-DDB1 protein complex, sequence (Q16531 whole entry partner): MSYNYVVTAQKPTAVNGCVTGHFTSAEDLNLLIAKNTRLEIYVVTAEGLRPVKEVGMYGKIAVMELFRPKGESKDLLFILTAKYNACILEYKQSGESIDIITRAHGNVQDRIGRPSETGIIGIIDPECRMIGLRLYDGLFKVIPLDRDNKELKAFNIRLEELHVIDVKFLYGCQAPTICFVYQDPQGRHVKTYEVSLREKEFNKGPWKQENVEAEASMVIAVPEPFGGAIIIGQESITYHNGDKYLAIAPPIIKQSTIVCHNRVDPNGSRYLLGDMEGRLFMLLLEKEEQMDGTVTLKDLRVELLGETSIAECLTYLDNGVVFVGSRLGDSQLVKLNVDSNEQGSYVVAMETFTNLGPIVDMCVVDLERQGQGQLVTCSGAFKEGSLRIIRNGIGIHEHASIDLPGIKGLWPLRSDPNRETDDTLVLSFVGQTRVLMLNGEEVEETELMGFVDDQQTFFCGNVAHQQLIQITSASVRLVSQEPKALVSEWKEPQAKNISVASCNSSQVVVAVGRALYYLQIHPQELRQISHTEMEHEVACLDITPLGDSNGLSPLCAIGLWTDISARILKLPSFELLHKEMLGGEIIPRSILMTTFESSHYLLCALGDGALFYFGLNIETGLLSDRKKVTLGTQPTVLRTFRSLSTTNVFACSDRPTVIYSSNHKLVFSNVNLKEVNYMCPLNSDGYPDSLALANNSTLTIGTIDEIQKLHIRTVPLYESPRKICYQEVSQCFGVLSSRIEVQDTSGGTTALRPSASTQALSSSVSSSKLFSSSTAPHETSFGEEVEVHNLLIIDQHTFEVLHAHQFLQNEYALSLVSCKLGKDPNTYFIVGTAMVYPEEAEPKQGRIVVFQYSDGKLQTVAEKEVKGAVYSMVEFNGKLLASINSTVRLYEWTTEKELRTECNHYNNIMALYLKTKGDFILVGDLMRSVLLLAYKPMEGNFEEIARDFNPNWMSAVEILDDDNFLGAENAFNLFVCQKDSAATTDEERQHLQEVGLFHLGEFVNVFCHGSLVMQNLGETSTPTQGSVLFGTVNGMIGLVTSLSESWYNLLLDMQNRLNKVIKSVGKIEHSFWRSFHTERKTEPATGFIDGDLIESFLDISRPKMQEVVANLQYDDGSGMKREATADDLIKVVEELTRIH

`Cc1nc2ccc(N)cc2cc1C1CCC(=O)NC1=O` (stereo not drawn) [Compound 11, 3-(6-amino-2-methylquinolin-3-yl)piperidine-2,6-dione] showed a Ki [1] of less than 1000 nM.
`Cc1nc2c(cnn2C)cc1C1CCC(=O)NC1=O` (stereo not drawn) [Compound 4, 3-(1,6-dimethyl-1H-pyrazolo[3,4-b]pyridin-5-yl)piperidine-2,6-dione] gave a Ki [1] of 1000 to 5000 nM.
In the case of `Cc1nc2c(NS(=O)(=O)c3ccccc3OC(F)(F)F)cccc2cc1C1CCC(=O)NC1=O` (stereo not drawn) [Compound 20, N-(3-(2,6-dioxopiperidin-3-yl)-2-methylquinolin-8-yl)-2-(trifluoromethoxy)benzenesulfonamide], the Ki [1] is reported as 1000 to 5000 nM.
`Cc1nc2cccc(F)c2cc1C1CCC(=O)NC1=O` (stereo not drawn) [Compound 3, 3-(5-fluoro-2-methylquinolin-3-yl)piperidine-2,6-dione] was tested, and the Ki [1] was 1000 to 5000 nM.
For `Cc1nc2c([N+](=O)[O-])cccc2cc1C1CCC(=O)NC1=O` (stereo not drawn) [Compound 7, 3-(2-methyl-8-nitroquinolin-3-yl)piperidine-2,6-dione], the Ki [1] was 1000 to 5000 nM.
`Cc1nc2c(N)cccc2cc1C1CCC(=O)NC1=O` (stereo not drawn) [Compound 10, 3-(8-amino-2-methylquinolin-3-yl)piperidine-2,6-dione] showed a Ki [1] of less than 1000 nM.
`O=C1CCC(N2C(=O)c3ccccc3C2=O)C(=O)N1` (stereo not drawn) [Thalidomide, reference compound] was tested, and the “% of IKZF3 (bottom band) protein reduction” value (IKZF3; at 1 μM) was ≤25% (≤25% for 0-25% of IKZF3 protein reduction), the “% of IKZF3 (upper band) protein reduction” value (IKZF3; at 1 μM) was ≤25% (≤25% for 0-25% of IKZF3 protein reduction) and the “% of IKZF3 (bottom band) protein reduction” value (IKZF3; at 10 μM) was ≤25% (≤25% for 0-25% of IKZF3 protein reduction). The “% of IKZF3 (upper band) protein reduction” value (IKZF3; at 10 μM) was ≤25% (≤25% for 0-25% of IKZF3 protein reduction), the “% of IKZF3 (bottom band) protein reduction” value (IKZF3; at 20 μM) was >25% (>25% for 26-74% of IKZF3 protein reduction) and the “% of IKZF3 (upper band) protein reduction” value (IKZF3; at 20 μM) was >25% (>25% for 26-74% of IKZF3 protein reduction). For the same compound, the “% of IKZF1 protein reduction” value (IKZF1; at 1 μM) was ≤25% (≤25% for 0-25% of IKZF1 protein reduction), the “% of IKZF1 protein reduction” value (IKZF1; at 10 μM) was ≤25% (≤25% for 0-25% of IKZF1 protein reduction) and the “% of IKZF1 protein reduction” value (IKZF1; at 20 μM) was >25% (>25% for 26-74% of IKZF1 protein reduction). For the same compound, the “% of SALL4 protein reduction” value (SALL4; at 1 μM) was >25% (>25% for 26-74% of SALL4 protein reduction), the “% of SALL4 protein reduction” value (SALL4; at 10 μM) was >25% (>25% for 26-74% of SALL4 protein reduction) and the “% of SALL4 protein reduction” value (SALL4; at 20 μM) was ≥75% (≥75% for 75-100% of SALL4 protein reduction).
With `Cc1nc2cccc(NS(=O)(=O)c3ccccc3OC(F)(F)F)c2cc1C1CCC(=O)NC1=O` (stereo not drawn) [Compound 17, N-(3-(2,6-dioxopiperidin-3-yl)-2-methylquinolin-5-yl)-2-(trifluoromethoxy)benzenesulfonamide] the Ki [1] was less than 1000 nM.
`Cc1nc2cc(C(=O)N[C@@H](C)C3CCCCC3)ccc2cc1C1CCC(=O)NC1=O` (stereo partly drawn) [Compound 9, N—((S)-1-cyclohexylethyl)-3-(2,6-dioxopiperidin-3-yl)-2-methylquinoline-7-carboxamide] was tested, and the Ki [1] was 1000 to 5000 nM.
In the case of `Cc1nc2cccc(N)c2c(=O)n1C1CCC(=O)NC1=O` (stereo not drawn) [CC-122], the “% of SALL4 protein reduction” value (SALL4; at 1 μM) is reported as ≥75% (≥75% for 75-100% of SALL4 protein reduction), the “% of SALL4 protein reduction” value (SALL4; at 10 μM) is reported as ≥75% (≥75% for 75-100% of SALL4 protein reduction) and the “% of SALL4 protein reduction” value (SALL4; at 20 μM) is reported as ≥75% (≥75% for 75-100% of SALL4 protein reduction).
`Cc1nc2cc(NS(=O)(=O)c3ccccc3OC(F)(F)F)ccc2cc1C1CCC(=O)NC1=O` (stereo not drawn) [Compound 19, N-(3-(2,6-dioxopiperidin-3-yl)-2-methylquinolin-7-yl)-2-(trifluoromethoxy)benzenesulfonamide] was tested, and the Ki [1] was less than 1000 nM.
For `Cc1nc2cccc([N+](=O)[O-])c2cc1C1CCC(=O)NC1=O` (stereo not drawn) [Compound 2, 3-(2-methyl-5-nitroquinolin-3-yl)piperidine-2,6-dione], the Ki [1] was 1000 to 5000 nM.
For `Cc1nc2cccc(N)c2cc1C1CCC(=O)NC1=O` (stereo not drawn) [Compound 1, 3-(5-amino-2-methylquinolin-3-yl)piperidine-2,6-dione], the “% of IKZF3 (bottom band) protein reduction” value (IKZF3; at 1 μM) was >25% (>25% for 26-74% of IKZF3 protein reduction), the “% of IKZF3 (upper band) protein reduction” value (IKZF3; at 1 μM) was >25% (>25% for 26-74% of IKZF3 protein reduction) and the “% of IKZF3 (bottom band) protein reduction” value (IKZF3; at 10 μM) was ≥75% (≥75% for 75-100% of IKZF3 protein reduction). For the same compound, the “% of IKZF3 (upper band) protein reduction” value (IKZF3; at 10 μM) was ≥75% (≥75% for 75-100% of IKZF3 protein reduction), the “% of IKZF3 (bottom band) protein reduction” value (IKZF3; at 20 μM) was ≥75% (≥75% for 75-100% of IKZF3 protein reduction) and the “% of IKZF3 (upper band) protein reduction” value (IKZF3; at 20 μM) was ≥75% (≥75% for 75-100% of IKZF3 protein reduction). The “% of IKZF1 protein reduction” value (IKZF1; at 1 μM) was >25% (>25% for 26-74% of IKZF1 protein reduction), the “% of IKZF1 protein reduction” value (IKZF1; at 10 μM) was ≥75% (≥75% for 75-100% of IKZF1 protein reduction) and the “% of IKZF1 protein reduction” value (IKZF1; at 20 μM) was ≥75% (≥75% for 75-100% of IKZF1 protein reduction). It also gave a viability at 2 µM (H929 (myeloma); at 2 μM) of 61.2%, a viability at 13 µM (H929 (myeloma); at 13 μM) of 47.5% and a viability at 50 µM (H929 (myeloma); at 50 μM) of 32.9%. For the same compound, the Ki [1] was 1000 to 5000 nM, the “% of SALL4 protein reduction” value (SALL4; at 1 μM) was ≤25% (≤25% for 0-25% of SALL4 protein reduction) and the “% of SALL4 protein reduction” value (SALL4; at 10 μM) was >25% (>25% for 26-74% of SALL4 protein reduction). For the same compound, the “% of SALL4 protein reduction” value (SALL4; at 20 μM) was >25% (>25% for 26-74% of SALL4 protein reduction).
Compound `Cc1ccc(NC(=O)NCc2ccc3cc(C4CCC(=O)NC4=O)c(C)nc3c2)cc1Cl` (stereo not drawn) [Compound 15, 1-(3-chloro-4-methylphenyl)-3-{[3-(2,6-dioxopiperidin-3-yl)-2-methylquinolin-7-yl]methyl}urea] has a Ki [1] of less than 1000 nM.
In the case of `Cc1nc2ccc([N+](=O)[O-])cc2cc1C1CCC(=O)NC1=O` (stereo not drawn) [Compound 5, 3-(2-methyl-6-nitroquinolin-3-yl)piperidine-2,6-dione], the Ki [1] is reported as 5000 to 10000 nM.
Compound `Cc1nc2ccccc2cc1C1CCC(=O)NC1=O` (stereo not drawn) [Compound 13, 3-(2-methylquinolin-3-yl)piperidine-2,6-dione] has a Ki [1] of 1000 to 5000 nM.
`Cc1nc2cc([N+](=O)[O-])ccc2cc1C1CCC(=O)NC1=O` (stereo not drawn) [Compound 6, 3-(2-methyl-7-nitroquinolin-3-yl)piperidine-2,6-dione] showed a Ki [1] of 5000 to 10000 nM.
In the case of `Cc1nc2c(Cl)cccc2cc1C1CCC(=O)NC1=O` (stereo not drawn) [Compound 21, 3-(8-chloro-2-methylquinolin-3-yl)piperidine-2,6-dione], the Ki [1] is reported as 1000 to 5000 nM.
In the case of `O=C1CCC(c2cnc3cccc([N+](=O)[O-])c3c2)C(=O)N1` (stereo not drawn) [Compound 12, 3-(5-nitroquinolin-3-yl)piperidine-2,6-dione], the Ki [1] is reported as 1000 to 5000 nM.
`Nc1cccc2ncc(C3CCC(=O)NC3=O)cc12` (stereo not drawn) [Compound 14, 3-(5-aminoquinolin-3-yl)piperidine-2,6-dione] was tested, and the Ki [1] was less than 1000 nM.
With `Cc1nc2ccc(NS(=O)(=O)c3ccccc3OC(F)(F)F)cc2cc1C1CCC(=O)NC1=O` (stereo not drawn) [Compound 18, N-(3-(2,6-dioxopiperidin-3-yl)-2-methylquinolin-6-yl)-2-(trifluoromethoxy)benzenesulfonamide] the Ki [1] was less than 1000 nM.
`Cc1nc2cc(CNC(=O)C(F)(F)c3ccc(Cl)cc3)ccc2cc1C1CCC(=O)NC1=O` (stereo not drawn) [Compound 16, 2-(4-chlorophenyl)-N-{[3-(2,6-dioxopiperidin-3-yl)-2-methylquinolin-7-yl]methyl}-2,2-difluoroacetamide] gave a Ki [1] of less than 1000 nM.
Work on `Cc1nc2cc(N)ccc2cc1C1CCC(=O)NC1=O` (stereo not drawn) [Compound 8, 3-(7-amino-2-methylquinolin-3-yl)piperidine-2,6-dione] yielded a Ki [1] of less than 1000 nM.
